Converted amounts (≈) assume the structure as drawn.
Tested on: Candida albicans FH 2173
Assay: Antifungal activity against Candida albicans, bouillon dilution method (microdilution)
Assay type: cell-based
Details: FH2173, growth inhibition by 50%, Mueller Hinton broth, 37° C., 20 hours, absorption at 590 nm
Procedure: For the detection of the antifungal activity of rapidly growing, aerobic causative organisms, the bouillon dilution method (microdilution) according to a procedure of the CLSI (Clinical and Laboratory Standards Institute, M7-A7, Vol. 26, No. 2) is used. The IC50 value was determined. This is the concentration of an active substance which is necessary in order to inhibit the growth of the test organism Candida albicans by 50%.
A stock solution of 1000 μg/ml of active substance [for example the compound of the formula (II) or the compound of the formula (IV)] in methanol was prepared. The test strain (Candida albicans FH 2173) was stored at −80° C. The inoculum was prepared from a fresh, liquid preculture. The preculture was prepared from a bead of the material stored at −80° C. and 30 ml of nutrient medium (Sabourad dextrose broth, Difco) and incubated at 37° C. and 180 revolutions per minute for 24 hours. The inoculum is to be adjusted such that after the inoculation of the test container the necessary number of colony-forming units is achieved. For this, the inoculum was adjusted to a value of 10^7 CFU/ml (CFU: colony forming units) by means of a photometer at a wavelength of 590 nm. […] The exact colony count was determined by means of surface culture. […] The microtiter plates were read with the aid of a photometer at a wavelength of 590 nm by measurement of the absorption. […]

SMILES | IC50
CCC(C)C1C(=O)NC(Cc2cc(Cl)c(O)c(Cl)c2)C(=O)NC(C(C)(C)O)C(=O)OC(c2ccccc2)C(C)/C=C/C=C(\C)C(OC)CC2OC2(C)C(=O)N1C (centres unmarked) [Compound (II)] | 0.06 µg/mL (≈ 0.0735 µM)
CCC(C)C1C(=O)NC(Cc2cc(Cl)c(OC)c(Cl)c2)C(=O)NC(C(C)(C)O)C(=O)OC(c2ccccc2)C(C)/C=C/C=C(\C)C(OC)CC2OC2(C)C(=O)N1C (centres unmarked) [Compound (IV)] | 0.41 µg/mL (≈ 0.493 µM)

Source: patent publication US8268775B2, “Macrolactone derivatives” (Sanofi, priority 2007, dated 2012)
